The results in this text go back to PMC6120666 (The EMBO Journal, 2018).

SMILES strings stand for the structures.

In test [1] the test system is THP1Blue cells, NOD1. Briefly: THP1Blue NF-κB-SEAP reporter assay, TriDAP (NOD1). In kind it is cell-based. The following applies: Homo sapiens; TriDAP 10 μg/ml; read-out: THP1-Blue NF-κB Inhibition IC50 (TriDAP). (Reporter assays use an easily measured gene product as a stand-in for the process of interest.)
Test [2] concerns the target T1, proteins of U2OS cell lysate (Homo sapiens, UniProt P35268).
T1 construct: Proteins enriched by c-ponatinib from U2OS cell lysate; endogenous in cells; host or cells: U2OS cell lysate
Briefly: Drug affinity chromatography with c-ponatinib and LC-MS/MS (ponatinib interactome). In kind it is binding. Put shortly: (§1)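 Proteins were identified by nano-UPLC–MS/MS after elution with formic acid and trypsin digestion. They were captured from U2OS lysate (2 mg protein per pulldown, NP-40 buffer) on amine-coupled NHS beads during a 2 h incubation at 4 °C.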

Test [3] addresses T2, proteins of U2OS cell lysate (Homo sapiens, UniProt P39656).
T2 construct: Proteins enriched by c-ponatinib from U2OS cell lysate; endogenous in cells; host or cells: U2OS cell lysate
The description is as above. Type of test: binding. Put shortly: as §1

Test [4] addresses T3, proteins of U2OS cell lysate (Homo sapiens, UniProt Q03252).
T3 construct: Proteins enriched by c-ponatinib from U2OS cell lysate; endogenous in cells; host or cells: U2OS cell lysate
The test is described as above. Type of test: binding. Put shortly: as §1

The target of test [5] is T4, proteins of U2OS cell lysate (Homo sapiens, UniProt Q06830).
T4 construct: Proteins enriched by c-ponatinib from U2OS cell lysate; endogenous in cells; host or cells: U2OS cell lysate
The description is as above. Type of test: binding. Put shortly:
as §1

Test [6] concerns the target T5, proteins of U2OS cell lysate (Homo sapiens, UniProt P48643).
T5 construct: Proteins enriched by c-ponatinib from U2OS cell lysate; endogenous in cells; host or cells: U2OS cell lysate
Described as above. In kind it is binding. Put shortly:
as §1

In test [7] the target is T6, proteins of U2OS cell lysate (Homo sapiens, UniProt Q16186).
T6 construct: Proteins enriched by c-ponatinib from U2OS cell lysate; endogenous in cells; host or cells: U2OS cell lysate
The test is described as above. Type of test: binding. In short, it runs like this:
as §1

Test [8] deals with T7, proteins of U2OS cell lysate (Homo sapiens, UniProt P36957).
T7 construct: Proteins enriched by c-ponatinib from U2OS cell lysate; endogenous in cells; host or cells: U2OS cell lysate
Described as above. In kind it is binding. In short, it runs like this: as §1

In test [9] the target is T8, proteins of U2OS cell lysate (Homo sapiens, UniProt Q9Y230).
T8 construct: Proteins enriched by c-ponatinib from U2OS cell lysate; endogenous in cells; host or cells: U2OS cell lysate
The description is as above. In kind it is binding. Put shortly:
as §1

T6 sequence (Q16186 whole entry): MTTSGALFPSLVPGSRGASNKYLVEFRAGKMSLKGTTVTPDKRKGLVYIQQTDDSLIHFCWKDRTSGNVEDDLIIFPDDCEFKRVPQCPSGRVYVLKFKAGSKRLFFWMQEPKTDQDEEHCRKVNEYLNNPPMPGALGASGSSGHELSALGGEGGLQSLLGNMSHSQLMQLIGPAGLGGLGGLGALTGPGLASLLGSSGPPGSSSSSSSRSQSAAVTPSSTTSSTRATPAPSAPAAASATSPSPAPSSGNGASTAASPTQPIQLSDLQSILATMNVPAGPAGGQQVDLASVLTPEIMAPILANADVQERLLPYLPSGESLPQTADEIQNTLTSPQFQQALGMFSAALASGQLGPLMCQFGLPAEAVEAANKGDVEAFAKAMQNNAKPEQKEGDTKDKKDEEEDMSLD
T2 sequence (P39656 43-456): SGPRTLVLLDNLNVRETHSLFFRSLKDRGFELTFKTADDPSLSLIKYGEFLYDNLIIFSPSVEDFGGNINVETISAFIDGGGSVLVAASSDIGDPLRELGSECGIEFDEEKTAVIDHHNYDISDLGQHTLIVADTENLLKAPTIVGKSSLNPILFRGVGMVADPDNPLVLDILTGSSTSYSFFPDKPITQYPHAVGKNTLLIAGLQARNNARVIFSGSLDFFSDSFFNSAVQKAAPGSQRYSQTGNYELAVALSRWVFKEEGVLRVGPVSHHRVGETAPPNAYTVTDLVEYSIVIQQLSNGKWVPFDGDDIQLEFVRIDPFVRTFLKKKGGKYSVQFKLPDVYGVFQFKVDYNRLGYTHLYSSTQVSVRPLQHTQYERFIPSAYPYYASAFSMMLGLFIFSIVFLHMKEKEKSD
T3 sequence (Q03252 whole entry): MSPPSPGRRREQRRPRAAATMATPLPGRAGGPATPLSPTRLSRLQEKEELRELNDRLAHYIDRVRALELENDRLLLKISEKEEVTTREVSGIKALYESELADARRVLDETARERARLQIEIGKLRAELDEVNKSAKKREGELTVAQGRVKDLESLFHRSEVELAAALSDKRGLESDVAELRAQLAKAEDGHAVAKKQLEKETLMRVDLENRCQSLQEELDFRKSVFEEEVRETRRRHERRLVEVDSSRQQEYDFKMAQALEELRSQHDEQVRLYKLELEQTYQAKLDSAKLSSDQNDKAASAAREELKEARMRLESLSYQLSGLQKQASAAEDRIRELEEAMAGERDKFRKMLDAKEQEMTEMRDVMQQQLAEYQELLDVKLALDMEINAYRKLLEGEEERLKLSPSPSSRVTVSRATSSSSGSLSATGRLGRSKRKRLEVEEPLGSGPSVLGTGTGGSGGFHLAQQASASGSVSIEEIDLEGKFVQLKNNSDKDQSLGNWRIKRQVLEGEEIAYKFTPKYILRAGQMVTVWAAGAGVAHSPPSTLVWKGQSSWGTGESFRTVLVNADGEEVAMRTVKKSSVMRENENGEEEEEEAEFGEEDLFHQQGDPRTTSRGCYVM
T7 sequence (P36957 68-453): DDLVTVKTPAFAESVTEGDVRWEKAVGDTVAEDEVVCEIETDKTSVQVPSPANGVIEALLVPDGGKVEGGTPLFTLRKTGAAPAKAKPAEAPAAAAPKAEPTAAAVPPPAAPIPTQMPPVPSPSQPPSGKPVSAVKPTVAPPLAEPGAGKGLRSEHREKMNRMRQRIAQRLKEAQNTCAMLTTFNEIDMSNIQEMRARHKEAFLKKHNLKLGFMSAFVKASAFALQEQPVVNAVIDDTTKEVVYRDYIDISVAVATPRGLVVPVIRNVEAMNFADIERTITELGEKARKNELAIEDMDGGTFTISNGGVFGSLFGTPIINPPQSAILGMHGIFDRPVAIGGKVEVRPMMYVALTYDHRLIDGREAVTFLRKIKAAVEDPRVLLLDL
T8 sequence (Q9Y230 whole entry): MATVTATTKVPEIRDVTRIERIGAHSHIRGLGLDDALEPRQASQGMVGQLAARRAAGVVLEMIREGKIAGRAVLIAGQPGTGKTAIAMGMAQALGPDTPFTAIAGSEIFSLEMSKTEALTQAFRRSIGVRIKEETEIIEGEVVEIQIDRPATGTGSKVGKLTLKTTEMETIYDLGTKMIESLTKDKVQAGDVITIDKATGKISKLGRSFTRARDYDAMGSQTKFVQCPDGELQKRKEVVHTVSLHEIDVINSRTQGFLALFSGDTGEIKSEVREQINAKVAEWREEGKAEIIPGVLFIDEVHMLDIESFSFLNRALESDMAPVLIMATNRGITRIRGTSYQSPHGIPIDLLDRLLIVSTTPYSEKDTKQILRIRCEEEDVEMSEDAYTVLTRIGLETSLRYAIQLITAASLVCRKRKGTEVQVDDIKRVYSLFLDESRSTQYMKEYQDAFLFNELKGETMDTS
T5 sequence (P48643 whole entry): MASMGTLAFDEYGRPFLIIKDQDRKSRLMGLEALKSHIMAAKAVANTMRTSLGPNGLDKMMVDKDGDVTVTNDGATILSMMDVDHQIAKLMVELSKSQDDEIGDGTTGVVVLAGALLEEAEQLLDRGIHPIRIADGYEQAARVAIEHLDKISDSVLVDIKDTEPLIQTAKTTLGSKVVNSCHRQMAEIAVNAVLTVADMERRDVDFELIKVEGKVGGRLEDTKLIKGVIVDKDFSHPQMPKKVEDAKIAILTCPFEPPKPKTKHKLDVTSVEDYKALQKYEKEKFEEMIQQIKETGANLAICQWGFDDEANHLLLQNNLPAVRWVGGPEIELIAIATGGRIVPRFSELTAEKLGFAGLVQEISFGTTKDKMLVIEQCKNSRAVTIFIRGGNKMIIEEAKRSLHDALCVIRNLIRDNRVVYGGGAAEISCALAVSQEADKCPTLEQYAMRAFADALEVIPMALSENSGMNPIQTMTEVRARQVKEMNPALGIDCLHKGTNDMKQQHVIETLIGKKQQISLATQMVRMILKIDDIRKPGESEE
T4 sequence (Q06830 whole entry): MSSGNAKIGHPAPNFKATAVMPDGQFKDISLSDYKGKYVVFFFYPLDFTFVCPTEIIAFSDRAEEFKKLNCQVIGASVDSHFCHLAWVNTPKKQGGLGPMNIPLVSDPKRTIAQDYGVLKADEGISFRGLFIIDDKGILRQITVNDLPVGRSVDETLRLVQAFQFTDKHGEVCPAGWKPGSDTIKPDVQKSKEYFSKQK

Usually IC50 stands for the concentration at which inhibition is half-maximal. For `CCCS(=O)(=O)Nc1cc(-c2cc(-c3ccc(N4CCNCC4)cc3)cnc2N)cc(F)c1OC` [CSLP37], the IC50 in test [1] was found to be 20.8 ± 1.2 nM.

Turning to `CCCS(=O)(=O)Nc1cc(-c2cc(-c3ccc(N4CCNCC4)cc3)cnc2N)cc(OC)c1OC` [CSLP43], the IC50 in test [1] is 1.43 ± 0.1 nM.

For the molecule `Cc1ccc(C(=O)Nc2ccc(CN3CCN(C)CC3)c(C(F)(F)F)c2)cc1C#Cc1cnc2cccnn12` [PON], the “Average LFQ PON_WT” value in test [2] (RPL22, 60S ribosomal protein L22) stood at 21.5804; in test [3] (DDOST, Dolichyl-diphosphooligosaccharide--protein glycosyltransferase 48 kDa subunit), 22.9075; in test [4] (LMNB2, Lamin-B2), 22.9109; in test [5] (PRDX1, Peroxiredoxin-1), 22.2382; in test [6] (CCT5, T-complex protein 1 subunit epsilon), 22.2687; in test [7] (ADRM1, Proteasomal ubiquitin receptor ADRM1), 22.2159. The “Average LFQ PON_WT” value in test [8] (DLST, Dihydrolipoyllysine-residue succinyltransferase component of 2-oxoglutarate dehydrogenase complex, mitochondrial) was 21.6592; in [9] (RUVBL2, RuvB-like 2), 22.2484.

On to `Cc1ccc(C(=O)Nc2ccc(CN3CCN(CCCN)CC3)c(C(F)(F)F)c2)cc1C#Cc1cnc2cccnn12` [c-ponatinib, reference compound], for which the “Average LFQ intensity” value in test [2] (captured protein RPL22, Rank 221) amounted to 21.5804; in test [3] (captured protein DDOST, Rank 129), 22.9075; in [4] (captured protein LMNB2, Rank 128) it was 22.9109; in test [5] (captured protein PRDX1, Rank 177), 22.2382; in test [6] (captured protein CCT5, Rank 171) it was 22.2687; in test [7] (captured protein ADRM1, Rank 178), 22.2159. Moreover, the “Average LFQ intensity” value in [8] (captured protein DLST, Rank 218) amounted to 21.6592; in [9] (captured protein RUVBL2, Rank 173), 22.2484.
